{
  "source": "patent US20180291402A1",
  "about": "“Linalool Composition and Method of Producing Therefor” (AJINOMOTO CO., INC., priority 2015, published 2018)",
  "key": {"[1]": {"details": "general statement on two-phase culture; cited from earlier work"}, "[2]": {"test_system": "SWITCH-PphoC Δgcd/pSTV28 strain", "assay": "Linalool addition test (growth, O.D. value over time)", "type": "cell-based, P. ananatis", "details": "reagent Linalool added at O.D. 0.6 to 0.7; tested at 1251, 837, 626 and 417 mg/L; M9 minimum medium, 34° C.; FIG. 58", "method": "The glycerol stock of the SWITCH-PphoC Δgcd/pSTV28 strain obtained by transforming the SWITCH-PphoC Δgcd strain constructed in Example 2 with the commercially available plasmid vector pSTV28 (produced by Takara Bio Inc.) was thawed, and 50 μL of a microbial cell suspension was uniformly applied onto an LB plate containing 60 mg/L of chloramphenicol and cultured at 34° C. for 18 hours while left to stand (without agitation). […] Cultivation was carried out using a small-sized shaking culture apparatus TVS062CA (produced by Advantec Toyo Kaisha, Ltd.) for 23 hours, the shaking of 5.0 sec was stopped every 15 minutes, and the O.D. values were automatically measured.\nThe concentration of linalool in the culture medium was calculated from the specific gravity of the reagent Linalool (0.86 (20/4° C.)) (reference literature: actual values supplied from Wako Pure Chemical Industries, Ltd.).\nThe graph showing changes of the O.D. value over time measured using TVS062CA communication software (TV100070, produced by Advantec Toyo Kaisha, Ltd.) is illustrated in FIG. 58."}},
  "data": [
    {"smiles": "C=C[C@](C)(O)CCC=C(C)C", "note": "[R-linalool, (3R)-3,7-dimethylocta-1,6-diene-3-ol]", "values": [
      {"measurement": "solubility with respect to water", "setting": "[1]", "value": "low solubility"}
    ]},
    {"smiles": "C=CC(C)(O)CCC=C(C)C", "note": "(stereo not drawn) [linalool, Linalool]", "values": [
      {"measurement": "concentration of linalool added to the culture medium at which the O.D. value is decreased (microbial cell growth inhibition)", "setting": "[2]", "value": "≥ 626", "unit": "µg/mL"}
    ]},
    {"smiles": "C=C[C@@](C)(O)CCC=C(C)C", "note": "[S-linalool, (3 S)-3,7-dimethylocta-1,6-diene-3-ol]", "values": [
      {"measurement": "solubility with respect to water", "setting": "[1]", "value": "low solubility"}
    ]}
  ]
}
